Measured values from PubChem BioAssay AID192 (DTP/NCI, 2004).
Toxic doses and inconclusive results are not listed. Rule for the calls: active = survival T/C of 150% or more; inactive = T/C below 125% in these data.

Tested on: BDF1 mice, B16 melanoma ip, median survival T/C
Experiment: NCI In Vivo Anticancer Drug Screen. Data for tumor model B16 Melanoma (intraperitoneal) in B6D2F1 (BDF1) mice
Conditions: endpoint: median survival time, higher = longer survival
Outline: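 Antitumor activity is assessed in mice bearing a transplanted tumor, with survival or tumor size compared against vehicle-dosed controls and expressed as T/C.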

[1] = dose: 100.0 mg/kg/injection, schedule: Q01DX009 (ip), vehicle: Klucel (hydroxypropylcellulose) (HPC)
[2] = dose: 200.0 mg/kg/injection, schedule: Q01DX009 (ip), vehicle: Klucel (hydroxypropylcellulose) (HPC)
[3] = dose: 50.0 mg/kg/injection, schedule: Q01DX009 (ip), vehicle: saline
[4] = dose: 100.0 mg/kg/injection, schedule: Q01DX009 (ip), vehicle: saline
[5] = dose: 200.0 mg/kg/injection, schedule: Q01DX009 (ip), vehicle: saline

Measured: T/C

COc1ccc(C(C(N)=O)N2CCOCC2)cc1 (stereo not given)
inactive: dose: 25.0 mg/kg/injection, schedule: Q01DX009 (ip), vehicle: Klucel (hydroxypropylcellulose) (HPC) 92 % of control | dose: 50.0 mg/kg/injection, schedule: Q01DX009 (ip), vehicle: Klucel (hydroxypropylcellulose) (HPC) 89 % of control | [1] 87 % of control | dose: 100.0 mg/kg/injection, schedule: Q04DX003 (ip), vehicle: Klucel (hydroxypropylcellulose) (HPC) 92 % of control | [2] 86 % of control | dose: 200.0 mg/kg/injection, schedule: Q04DX003 (ip), vehicle: Klucel (hydroxypropylcellulose) (HPC) 95 % of control | dose: 400.0 mg/kg/injection, schedule: Q04DX003 (ip), vehicle: Klucel (hydroxypropylcellulose) (HPC) 95 % of control

COc1cc(C=Nc2cccc(C(F)(F)F)c2)ccc1O
inactive: [1] 99 % of control | [2] 94 % of control

COc1ccc(-c2cc(=O)c3c(ccc4ccccc43)o2)cc1
inactive: [1] 94 % of control | [2] 100 % of control | dose: 400.0 mg/kg/injection, schedule: Q01DX009 (ip), vehicle: Klucel (hydroxypropylcellulose) (HPC) 102 % of control

NC(Cn1cc(N(CCCl)CCCl)c(=O)[nH]c1=O)C(=O)O (stereo not given)
inactive: dose: 6.0 mg/kg/injection, schedule: Q01DX009 (ip), vehicle: saline 104 % of control | dose: 12.0 mg/kg/injection, schedule: Q01DX009 (ip), vehicle: saline 115 % of control

OCc1cc2c([nH]c3ccccc32)c(C(O)CO)n1 (stereo not given)
inactive: dose: 20.0 mg/kg/injection, schedule: Q01DX009 (ip), vehicle: saline with Tween-80 102 % of control | dose: 40.0 mg/kg/injection, schedule: Q01DX009 (ip), vehicle: saline with Tween-80 99 % of control | dose: 80.0 mg/kg/injection, schedule: Q01DX009 (ip), vehicle: saline with Tween-80 97 % of control

O=c1cccccc1O.O=c1cccccc1O.[Cu]
inactive: dose: 0.39 mg/kg/injection, schedule: Q01DX009 (ip), vehicle: Klucel (hydroxypropylcellulose) (HPC) 102 % of control | dose: 0.78 mg/kg/injection, schedule: Q01DX009 (ip), vehicle: Klucel (hydroxypropylcellulose) (HPC) 92 % of control

O=P(O)(O)OCC(O)CCl (stereo not given)
inactive: [3] 110 % of control | [4] 103 % of control | [5] 103 % of control

CC1=CC(=O)C(CO)=CC1=O
inactive: dose: 0.05 mg/kg/injection, schedule: Q01DX009 (ip), vehicle: saline with Tween-80 94 % of control | dose: 0.1 mg/kg/injection, schedule: Q01DX009 (ip), vehicle: saline with Tween-80 103 % of control | dose: 0.2 mg/kg/injection, schedule: Q01DX009 (ip), vehicle: saline with Tween-80 93 % of control | dose: 0.38 mg/kg/injection, schedule: Q01DX009 (ip), vehicle: saline with Tween-80 93 % of control | dose: 0.4 mg/kg/injection, schedule: Q01DX009 (ip), vehicle: saline with Tween-80 94 % of control

CSCCC(C#N)c1ccccc1 (stereo not given)
inactive: dose: 50.0 mg/kg/injection, schedule: Q01DX009 (ip), vehicle: saline with Tween-80 88 % of control | dose: 100.0 mg/kg/injection, schedule: Q01DX009 (ip), vehicle: saline with Tween-80 88 % of control

COc1cc(C(=O)OC(C)CN2CCOCC2)cc(OC)c1OC (stereo not given)
inactive: dose: 3.12 mg/kg/injection, schedule: Q04DX003 (ip), vehicle: saline 106 % of control | dose: 6.25 mg/kg/injection, schedule: Q04DX003 (ip), vehicle: saline 111 % of control | dose: 12.5 mg/kg/injection, schedule: Q01DX009 (ip), vehicle: saline 100 % of control | dose: 12.5 mg/kg/injection, schedule: Q04DX003 (ip), vehicle: saline 106 % of control | dose: 25.0 mg/kg/injection, schedule: Q01DX009 (ip), vehicle: saline 100 % of control | dose: 25.0 mg/kg/injection, schedule: Q04DX003 (ip), vehicle: saline 105 % of control | [3] 100 % of control | dose: 50.0 mg/kg/injection, schedule: Q04DX003 (ip), vehicle: saline 102 % of control | [4] 108 % of control | dose: 100.0 mg/kg/injection, schedule: Q04DX003 (ip), vehicle: saline 98 % of control | [5] 102 % of control | dose: 200.0 mg/kg/injection, schedule: Q04DX003 (ip), vehicle: saline 118 % of control | dose: 400.0 mg/kg/injection, schedule: Q04DX003 (ip), vehicle: saline 97 % of control

CCCCc1ccc2nc(NC(=O)OC)[nH]c2c1
inactive: dose: 6.25 mg/kg/injection, schedule: Q01DX009 (ip), vehicle: saline with Tween-80 106 % of control | dose: 12.5 mg/kg/injection, schedule: Q01DX009 (ip), vehicle: saline with Tween-80 112 % of control | dose: 25.0 mg/kg/injection, schedule: Q01DX009 (ip), vehicle: saline with Tween-80 115 % of control
